Structures can show the parent of a compound that is named as a salt.
Legend:
rat whole blood = test: Hemolytic potential in rat whole blood; assay type: cell-based, Sprague Dawley rat; conditions: 37 ° C. 30 minutes
Protocol: (§1) 1-DNJ-HCl was dissolved in sodium citrate buffer. 1-DNJ-HCl concentration was 30 mg/mL (resulting free 1-DNJ concentration was 25 mg/mL); sodium citrate buffer concentration was 50 mM at pH 5.0. 1-DNJ-HCl formulation was added to whole blood samples of male human, rat, and cynomolgus monkey. […]. Buffer served as a negative control, while Triton-X 100 (Lysing agent) served as a positive control. Additionally blood sample without any additions was used as a negative control. The samples were stored at 4° C. Blood samples were incubated at 37 ° C. for 30 minutes with the 1-DNJ-HCl formulation, after which the samples were centrifuged. The amount of hemoglobin in the supernatant from each centrifuged sample was measured using a commercially available hemoglobin assay kit (BioAssay Systems, QuantiChrom™ Hemoglobin Assay Kit) and the Tecan microplate reader.

[1] = Osmolality of 1-DNJ-HCl in sodium citrate buffer by freezing point; assay type: physicochemical
Protocol: The molallity of 1-deoxynojirimycin chloride (1-DNJ-HCl) was determined by freezing point depreciation. 1-deoxynojirimycin chloride concentration ranged from 30 mg/mL to 60 mg/mL. Sodium citrate concentration ranged from 20 to 50 mM.

[2] = tested on: cynomolgus monkey whole blood; test: Hemolytic potential in cynomolgus monkey whole blood; assay type: cell-based; conditions: 37 ° C. 30 minutes
Protocol: as §1

human whole blood = test: Hemolytic potential in human whole blood; assay type: cell-based; conditions: 37 ° C. 30 minutes
Protocol: as §1

[3] = 500 μL blood mixed with 500 μL sample (30 mg/mL AT2220 or 0.1% Triton X-100)
[4] = 500 μL blood mixed with 500 μL sample, 30 mg/mL AT2220 dilution 1, 0.1% Triton X-100 dilution 100

OC[C@H]1NC[C@H](O)[C@@H](O)[C@@H]1O [1-DNJ-HCl, 1-deoxynojirimycin hydrochloride]
% RBC lysis (rat whole blood; [3]): −0.3% | Avg OD (n = 4) (rat whole blood; [4]): 0.3535 | Osmolality ([1]; 1-DNJ-HCl 30 mg/mL, Sodium Citrate Buffer 20 mM): 311 mOsm/kg | Osmolality ([1]; 1-DNJ-HCl 30 mg/mL, Sodium Citrate Buffer 25 mM): 327 mOsm/kg | Osmolality ([1]; 1-DNJ-HCl 30 mg/mL, Sodium Citrate Buffer 30 mM): 343 mOsm/kg | Osmolality ([1]; 1-DNJ-HCl 30 mg/mL, Sodium Citrate Buffer 35 mM): 358 mOsm/kg | Osmolality ([1]; 1-DNJ-HCl 30 mg/mL, Sodium Citrate Buffer 40 mM): 374 mOsm/kg | Osmolality ([1]; 1-DNJ-HCl 30 mg/mL, Sodium Citrate Buffer 45 mM): 389 mOsm/kg | Osmolality ([1]; 1-DNJ-HCl 35 mg/mL, Sodium Citrate Buffer 20 mM): 353 mOsm/kg | Osmolality ([1]; 1-DNJ-HCl 35 mg/mL, Sodium Citrate Buffer 25 mM): 369 mOsm/kg | Osmolality ([1]; 1-DNJ-HCl 35 mg/mL, Sodium Citrate Buffer 30 mM): 384 mOsm/kg | Osmolality ([1]; 1-DNJ-HCl 35 mg/mL, Sodium Citrate Buffer 35 mM): 400 mOsm/kg | Osmolality ([1]; 1-DNJ-HCl 35 mg/mL, Sodium Citrate Buffer 40 mM): 415 mOsm/kg | Osmolality ([1]; 1-DNJ-HCl 35 mg/mL, Sodium Citrate Buffer 45 mM): 431 mOsm/kg | Osmolality ([1]; 1-DNJ-HCl 35 mg/mL, Sodium Citrate Buffer 50 mM): 447 mOsm/kg | Osmolality ([1]; 1-DNJ-HCl 40 mg/mL, Sodium Citrate Buffer 20 mM): 394 mOsm/kg | Osmolality ([1]; 1-DNJ-HCl 40 mg/mL, Sodium Citrate Buffer 25 mM): 410 mOsm/kg | Osmolality ([1]; 1-DNJ-HCl 40 mg/mL, Sodium Citrate Buffer 30 mM): 426 mOsm/kg | Osmolality ([1]; 1-DNJ-HCl 40 mg/mL, Sodium Citrate Buffer 35 mM): 441 mOsm/kg | Osmolality ([1]; 1-DNJ-HCl 40 mg/mL, Sodium Citrate Buffer 40 mM): 457 mOsm/kg | Osmolality ([1]; 1-DNJ-HCl 40 mg/mL, Sodium Citrate Buffer 45 mM): 472 mOsm/kg | Osmolality ([1]; 1-DNJ-HCl 40 mg/mL, Sodium Citrate Buffer 50 mM): 488 mOsm/kg | Osmolality ([1]; 1-DNJ-HCl 45 mg/mL, Sodium Citrate Buffer 20 mM): 436 mOsm/kg | Osmolality ([1]; 1-DNJ-HCl 45 mg/mL, Sodium Citrate Buffer 25 mM): 452 mOsm/kg | Osmolality ([1]; 1-DNJ-HCl 45 mg/mL, Sodium Citrate Buffer 30 mM): 467 mOsm/kg | Osmolality ([1]; 1-DNJ-HCl 45 mg/mL, Sodium Citrate Buffer 35 mM): 483 mOsm/kg | Osmolality ([1]; 1-DNJ-HCl 45 mg/mL, Sodium Citrate Buffer 40 mM): 498 mOsm/kg | Osmolality ([1]; 1-DNJ-HCl 45 mg/mL, Sodium Citrate Buffer 45 mM): 514 mOsm/kg | Osmolality ([1]; 1-DNJ-HCl 45 mg/mL, Sodium Citrate Buffer 50 mM): 530 mOsm/kg | Osmolality ([1]; 1-DNJ-HCl 50 mg/mL, Sodium Citrate Buffer 20 mM): 477 mOsm/kg | Osmolality ([1]; 1-DNJ-HCl 50 mg/mL, Sodium Citrate Buffer 25 mM): 493 mOsm/kg | Osmolality ([1]; 1-DNJ-HCl 50 mg/mL, Sodium Citrate Buffer 30 mM): 509 mOsm/kg | Osmolality ([1]; 1-DNJ-HCl 50 mg/mL, Sodium Citrate Buffer 35 mM): 524 mOsm/kg | Osmolality ([1]; 1-DNJ-HCl 50 mg/mL, Sodium Citrate Buffer 40 mM): 540 mOsm/kg | Osmolality ([1]; 1-DNJ-HCl 50 mg/mL, Sodium Citrate Buffer 45 mM): 555 mOsm/kg | Osmolality ([1]; 1-DNJ-HCl 50 mg/mL, Sodium Citrate Buffer 50 mM): 571 mOsm/kg | Osmolality ([1]; 1-DNJ-HCl 55 mg/mL, Sodium Citrate Buffer 20 mM): 519 mOsm/kg | Osmolality ([1]; 1-DNJ-HCl 55 mg/mL, Sodium Citrate Buffer 25 mM): 535 mOsm/kg | Osmolality ([1]; 1-DNJ-HCl 55 mg/mL, Sodium Citrate Buffer 30 mM): 550 mOsm/kg | Osmolality ([1]; 1-DNJ-HCl 55 mg/mL, Sodium Citrate Buffer 35 mM): 566 mOsm/kg | Osmolality ([1]; 1-DNJ-HCl 55 mg/mL, Sodium Citrate Buffer 40 mM): 581 mOsm/kg | Osmolality ([1]; 1-DNJ-HCl 55 mg/mL, Sodium Citrate Buffer 45 mM): 597 mOsm/kg | Osmolality ([1]; 1-DNJ-HCl 55 mg/mL, Sodium Citrate Buffer 50 mM): 613 mOsm/kg | Osmolality ([1]; 1-DNJ-HCl 60 mg/mL, Sodium Citrate Buffer 20 mM): 560 mOsm/kg | Osmolality ([1]; 1-DNJ-HCl 60 mg/mL, Sodium Citrate Buffer 25 mM): 576 mOsm/kg | Osmolality ([1]; 1-DNJ-HCl 60 mg/mL, Sodium Citrate Buffer 30 mM): 592 mOsm/kg | Osmolality ([1]; 1-DNJ-HCl 60 mg/mL, Sodium Citrate Buffer 35 mM): 607 mOsm/kg | Osmolality ([1]; 1-DNJ-HCl 60 mg/mL, Sodium Citrate Buffer 40 mM): 623 mOsm/kg | Osmolality ([1]; 1-DNJ-HCl 60 mg/mL, Sodium Citrate Buffer 45 mM): 638 mOsm/kg | Osmolality ([1]; 1-DNJ-HCl 60 mg/mL, Sodium Citrate Buffer 50 mM): 654 mOsm/kg | % RBC lysis [2, 3]: 0.1% | Avg OD (n = 4) [2, 4]: 0.0649 | % RBC lysis (human whole blood; [3]): 0.0% | Avg OD (n = 4) (human whole blood; [4]): 0.0755
